Here are results for two compounds from patent US11446269B2, “Methods of reducing or preventing oxidation of small dense LDL or membrane polyunsaturated fatty acids” (Amarin Pharmaceuticals Ireland Limited, priority 2014, dated 2022).

The structures appear in SMILES notation.

Experiment [1] is described as follows: LOOH formation in glucose-treated model membranes, EPA versus EA and ETE (Example 5). In kind it is biochemical. Conditions: 72 or 96 hr autoxidation. As to the method: An experiment was conducted to compare the ability of EPA to prevent lipid hydroperoxide formation in model membranes treated with glucose to two other 20-carbon fatty acids: eicosanoic acid (“EA,” also referred to as arachidic acid, C20:0) and eicosatrienoic acid (“ETE,” C20:3, n-3). All MLV samples were subjected to time-dependent autoxidation by incubating at 37° C. in an uncovered, shaking water bath. This method allows lipid peroxidation to occur gradually without requiring the use of exogenous initiators. Small aliquots (5-100 μL) of each sample were removed, immediately following MLV preparation (0 hr) and after exposing samples to oxidative conditions for 72 or 96 hr, and combined with 1.0 mL of activated CHOD-iodide color reagent. Aliquot volume was reduced with each successive time point to ensure that spectrophotometric readings were within the optimal adsorption range. Test samples were covered and incubated in darkness at room temperature for at least 4 hr. Sample absorbances were then measured against a CHOD blank at 365 nm using a Beckman DU-640 spectrophotometer. The CHOD colorimetric assay is based on the oxidation of iodide (I^−) by lipid hydroperoxide (LOOH) to form triiodide (I3^−), the quantity of which is directly proportional to the amount of LOOH present in the lipid sample. The molar absorptivity (ε) of I3^− is 2.46×10^4 M^−1 cm^−1 at 365 nm.

Experiment [2] can be described thus: Lipid hydroperoxide (LOOH) formation in cholesterol-enriched DLPC model membranes under autoxidation (Example 3). Conditions: EPA:lipid 1:30, C/P 0.6:1, autoxidation 37° C. 72 hours, vs untreated controls. The experiment is classed as biochemical. As to the method: Levels of lipid hydroperoxides were also measured in cholesterol-enriched membrane prepared in the absence of EPA as a control. […] CHOD-iodide color reagent (stock) was prepared according to a procedure modified from El-Saadani et […], Goher […], Jurgens G. A spectrophotometric assay for lipid peroxides in serum lipoproteins using commercially available reagent. J. Lipid. […] Membrane samples consisting of DLPC±cholesterol were prepared as follows. Component lipids (in chloroform) were transferred to 13×100 mm test tubes and shell-dried under a steady stream of nitrogen gas while vortex mixing. The lipid was co-dried with EPA. Residual solvent was removed by drying for a minimum of 3 h under vacuum. After desiccation, each membrane sample was resuspended in diffraction buffer (0.5 mM HEPES, 154 mM NaCl, pH 7.3) to yield a final phospholipid concentration of 1.0 mg/mL. Multilamellar vesicles (MLV) were formed by vortex mixing for 3 minutes at ambient temperature. […] Absorbances were measured against a CHOD blank at 365 nm using a Beckman DU-640 spectrophotometer. The CHOD colorimetric assay is based on the oxidation of iodide (I^-) by lipid hydroperoxides (LOOH) and proceeds according to the following reaction scheme: […]3^- The quantity of triiodide anion (I3^-) liberated in this reaction is directly proportional to the amount of lipid hydroperoxides present in the membrane sample.

For the next experiment, the system named is HUVECs. In words: NO and ONOO^− release from HUVECs exposed to oxLDL, nanosensors (Example 8). The experiment is classed as cell-based, human. Conditions: oxLDL 20 min, then agent 1 hour (EPA 10 μM, ATM 1.0 μM). As to the method:
Human umbilical vein endothelial cells (HUVECs) were isolated into primary cultures from female donors by Clonetics (San Diego, Calif.) and purchased as proliferating cells. All cell culture donors were healthy, with no pregnancy or prenatal complications. […] The confluent cells (4 to 5×10^5 cells/35 mm dish) were placed with minimum essential medium containing 3 mM L-arginine and 0.1 mM BH4 [(6R)-5,6,7,8-tetrahydrobiopterin]. Before experimental use, the cells (from second or third passage) were rinsed twice with Tyrode-HEPES buffer with 1.8 mM CaCl2.
The omega-3 fatty acids (O3FAs) cis-5,8,11,14,17-eicosapentaenoic acid (EPA) and docosahexaenoic acid (DHA) were purchased from Sigma-Aldrich (St. Louis, Mo.) and prepared initially at 11 mM in redistilled ethanol. Primary and secondary O3FA stock solutions were prepared and stored under argon at −20° C. […]
Oxidation was monitored by the use of measurements of TBARS. […] TBARS concentration was determined as malondialdehyde (MDA) equivalents with the use of an MDA standard curve. […]
The amperometric method (with a response time of 0.1 ms) provides a quantitative signal (current) that is directly proportional to changes (from basal levels) in NO or ONOO^− concentration. […] Basal NO or ONOO^− levels were measured by differential pulse voltammetry in separate experiments. […]

For `CC/C=C\C/C=C\C/C=C\C/C=C\C/C=C\CCCC(=O)O` [EPA, cis-5,8,11,14,17-eicosapentaenoic acid], the “LOOH formation compared to vehicle, glucose, glucose + EA, glucose + ETE” value in experiment [1] was “significantly less LOOH formation”. Also, the “reduction of LOOH levels” value in experiment [2] is “greater than 90%”.
Consider `O=C(O)c1cccnc1` [Niacin, nicotinic acid], for which, in the experiment on HUVECs, the “NO/ONOO^− Ratio” value amounted to 2.00 ± 0.52. The compound also gave an NO release in the experiment on HUVECs (unit printed in b302 only) of 431 ± 100 nM.
